Among the data in patent US11168073B2, “3,3-difluoroallylamines or salts thereof and pharmaceutical compositions comprising the same” (YUHAN CORPORATION, priority 2018, dated 2021) are IC50 values, retold here.

Type in all cases: biochemical
In assay [1] the target is T1, recombinant human DAO (diamine oxidase) (Homo sapiens, UniProt P19801).
T1 construct: purchased R&D systems
T1 sequence (P19801 20-751): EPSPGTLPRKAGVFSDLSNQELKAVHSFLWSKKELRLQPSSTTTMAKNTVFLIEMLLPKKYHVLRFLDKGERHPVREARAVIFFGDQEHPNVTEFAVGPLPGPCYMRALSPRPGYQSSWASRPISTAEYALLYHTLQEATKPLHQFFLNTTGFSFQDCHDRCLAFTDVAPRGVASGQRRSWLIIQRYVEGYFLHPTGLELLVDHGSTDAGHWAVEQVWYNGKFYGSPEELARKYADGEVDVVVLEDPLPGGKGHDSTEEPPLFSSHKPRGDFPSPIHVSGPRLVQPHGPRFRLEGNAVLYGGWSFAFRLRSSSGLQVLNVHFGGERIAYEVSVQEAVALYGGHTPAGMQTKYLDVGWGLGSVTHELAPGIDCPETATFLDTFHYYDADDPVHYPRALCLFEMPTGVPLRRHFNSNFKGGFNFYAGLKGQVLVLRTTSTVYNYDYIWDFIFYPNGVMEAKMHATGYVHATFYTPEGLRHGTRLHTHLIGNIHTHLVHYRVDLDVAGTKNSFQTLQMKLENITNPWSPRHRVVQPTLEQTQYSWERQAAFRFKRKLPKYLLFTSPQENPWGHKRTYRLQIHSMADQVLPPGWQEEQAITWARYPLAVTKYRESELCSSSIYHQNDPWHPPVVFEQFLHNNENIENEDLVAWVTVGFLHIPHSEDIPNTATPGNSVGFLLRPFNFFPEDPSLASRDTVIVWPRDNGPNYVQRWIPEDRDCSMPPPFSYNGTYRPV
Nature of the assay: Activity evaluation on recombinant human DAO (Amplex Red/HRP-coupled assay, 1 mM putrescine substrate). Conditions: read-out: Inhibitory Activity (IC50, nM) DAO. The essentials: (§1)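 Each oxidase is tested with its own substrate: MAO-A with 0.5 mM tyramine, MAO-B with 1 mM benzylamine, DAO with 1 mM putrescine. After 30 min enzyme-compound preincubation at 37 °C, Amplex Red (200 uM) plus HRP (1 U/mL) reports H2O2 as fluorescence; IC50 is fitted from eight-point curves.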

The target of assay [2] is T2, recombinant human MAO-A (monoamine oxidase-A) (Homo sapiens, UniProt P21397).
T2 construct: purchased Sigma-Aldrich
T2 sequence (P21397 1-527): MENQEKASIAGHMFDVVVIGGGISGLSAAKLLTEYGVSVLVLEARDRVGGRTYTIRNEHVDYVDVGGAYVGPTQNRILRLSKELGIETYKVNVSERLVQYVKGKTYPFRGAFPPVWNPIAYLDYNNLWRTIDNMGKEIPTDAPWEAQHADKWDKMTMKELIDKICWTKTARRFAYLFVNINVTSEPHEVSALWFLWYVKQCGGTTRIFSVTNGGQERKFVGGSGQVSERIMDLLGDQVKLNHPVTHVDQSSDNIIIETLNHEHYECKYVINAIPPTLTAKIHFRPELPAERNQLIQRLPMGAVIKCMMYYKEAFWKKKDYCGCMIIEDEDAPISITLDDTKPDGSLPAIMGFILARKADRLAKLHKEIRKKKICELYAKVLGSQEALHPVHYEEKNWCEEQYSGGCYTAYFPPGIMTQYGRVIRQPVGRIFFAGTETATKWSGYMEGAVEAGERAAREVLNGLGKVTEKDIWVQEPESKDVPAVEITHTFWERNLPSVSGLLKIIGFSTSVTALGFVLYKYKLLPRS
Nature of the assay: Activity evaluation on recombinant human MAO-A (Amplex Red/HRP-coupled assay, 0.5 mM tyramine substrate). Conditions: read-out: Inhibitory Activity (IC50, nM) MAO-A. The essentials:
as §1

Assay [3] deals with T3, recombinant human MAO-B (monoamine oxidase-B) (Homo sapiens, UniProt P27338).
T3 construct: purchased Sigma-Aldrich
T3 sequence (P27338 1-520): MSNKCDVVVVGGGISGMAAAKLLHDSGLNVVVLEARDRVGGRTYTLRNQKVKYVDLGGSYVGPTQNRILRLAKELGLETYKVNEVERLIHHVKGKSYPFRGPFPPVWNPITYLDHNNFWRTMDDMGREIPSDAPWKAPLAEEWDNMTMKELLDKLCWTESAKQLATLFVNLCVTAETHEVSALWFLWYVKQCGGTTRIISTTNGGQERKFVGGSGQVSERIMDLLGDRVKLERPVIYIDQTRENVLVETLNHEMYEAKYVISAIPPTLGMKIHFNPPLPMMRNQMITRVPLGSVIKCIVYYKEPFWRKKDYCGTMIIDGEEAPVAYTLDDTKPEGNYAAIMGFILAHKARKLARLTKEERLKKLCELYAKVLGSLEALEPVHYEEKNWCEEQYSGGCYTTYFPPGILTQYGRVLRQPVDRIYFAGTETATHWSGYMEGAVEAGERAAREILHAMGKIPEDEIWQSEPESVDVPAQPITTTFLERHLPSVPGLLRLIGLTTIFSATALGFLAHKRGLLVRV
Nature of the assay: Activity evaluation on recombinant human MAO-B (Amplex Red/HRP-coupled assay, 1 mM benzylamine substrate). Conditions: read-out: Inhibitory Activity (IC50, nM) MAO-B. In short, it runs like this:
as §1

In the next assay the target is T4, recombinant human VAP-1 (Homo sapiens, UniProt Q16853).
T4 construct: purchased R&D systems
T4 sequence (Q16853 1-763): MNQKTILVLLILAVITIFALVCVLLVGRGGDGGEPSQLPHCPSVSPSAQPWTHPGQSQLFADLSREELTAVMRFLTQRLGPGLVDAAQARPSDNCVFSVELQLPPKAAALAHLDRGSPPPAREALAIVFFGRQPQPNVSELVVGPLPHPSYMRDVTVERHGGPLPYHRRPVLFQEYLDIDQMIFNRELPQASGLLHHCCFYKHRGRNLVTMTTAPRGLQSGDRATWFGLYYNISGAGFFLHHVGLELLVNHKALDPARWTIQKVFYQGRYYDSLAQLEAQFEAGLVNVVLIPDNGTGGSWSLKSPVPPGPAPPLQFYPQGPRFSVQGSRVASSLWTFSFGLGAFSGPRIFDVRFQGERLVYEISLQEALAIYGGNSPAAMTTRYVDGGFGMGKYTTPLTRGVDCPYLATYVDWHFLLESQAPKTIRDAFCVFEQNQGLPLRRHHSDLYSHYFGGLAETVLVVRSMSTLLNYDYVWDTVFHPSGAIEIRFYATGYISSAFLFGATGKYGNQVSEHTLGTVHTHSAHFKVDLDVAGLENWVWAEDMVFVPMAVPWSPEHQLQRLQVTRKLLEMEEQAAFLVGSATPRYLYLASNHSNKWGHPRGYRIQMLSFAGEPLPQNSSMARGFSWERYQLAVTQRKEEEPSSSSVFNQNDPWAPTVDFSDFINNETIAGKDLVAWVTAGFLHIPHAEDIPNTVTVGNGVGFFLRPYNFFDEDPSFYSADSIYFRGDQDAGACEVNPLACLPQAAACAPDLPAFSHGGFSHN
Nature of the assay: Activity evaluation on recombinant human VAP-1 (Amplex Red/HRP-coupled hydrogen peroxide assay, benzylamine substrate). As to conditions: read-out: Inhibitory Activity (IC50, nM) human VAP-1. The essentials:
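Hydrogen peroxide from benzylamine (1 mM) oxidation by human recombinant VAP-1 detected via HRP-coupled Amplex Red (200 uM) fluorescence, kinetic over 1–2 h. Enzyme and compound preincubated 30 min at 37 °C, pH 7.4 phosphate; 8-point dose response, signal-rate decrease versus DMSO control fitted to four-parameter logistic for IC50.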

[4] abbreviates: recombinant human VAP-1, benzylamine substrate.
Setting [5] is: recombinant human VAP-1, 30 min preincubation at 37° C., 1 mM benzylamine.

Counter-ions that a name gives are not always drawn. Like-named read-outs stand apart in the source and are kept apart here.

In the case of `Cc1cc(-c2ccc(N3CCCC3=O)cc2)cnc1-n1cnn(CC(CN)=C(F)F)c1=O` [Example 230, 2-[2-(aminomethyl)-3,3-difluoro-allyl]-4-[3-methyl-5-[4-(2-oxopyrrolidin-1-yl)phenyl]-2-pyridyl]-1,2,4-triazol-3-one Trifluoroacetate], the IC50 in assay [1] (1 mM putrescine substrate) was 24000 nM; in assay [2] (0.5 mM tyramine substrate), greater than 100000 nM; in assay [3] (1 mM benzylamine substrate), 77000 nM; at recombinant human VAP-1 (setting [4]), 0.7 nM.

In the case of `CC(=O)c1ccc(-c2cnc(-n3cnn(CC(CN)=C(F)F)c3=O)c(C)c2)s1` [Example 231, 4-[5-(5-acetyl-2-thienyl)-3-methyl-2-pyridyl]-2-[2-(aminomethyl)-3,3-difluoro-allyl]-1,2,4-triazol-3-one Trifluoroacetate], the IC50 is 3910 nM in assay [1] (1 mM putrescine substrate), 40400 nM in assay [2] (0.5 mM tyramine substrate), 1950 nM in assay [3] (1 mM benzylamine substrate) and 0.2 nM on recombinant human VAP-1 (setting [4]).

Regarding `CC(C)n1cc(-c2csc(Cn3cnn(CC(CN)=C(F)F)c3=O)c2)cn1` [Example 195, 2-[2-(aminomethyl)-3,3-difluoro-allyl]-4-[[4-(1-isopropylpyrazol-4-yl)-2-thienyl]methyl]-1,2,4-triazol-3-one Trifluoroacetate], the IC50 in assay [1] (1 mM putrescine substrate) is 31000 nM; in assay [2] (0.5 mM tyramine substrate) it was greater than 100000 nM; in assay [3] (1 mM benzylamine substrate), 38000 nM; on recombinant human VAP-1 (setting [4]), 2 nM.

As to `CN(C)c1ccc(-c2ccc3cc(Cn4cnn(CC(CN)=C(F)F)c4=O)sc3c2)cn1` [Example 200, 2-[2-(aminomethyl)-3,3-difluoro-allyl]-4-[[6-[6-(dimethylamino)-3-pyridyl]benzothiophen-2-yl]methyl]-1,2,4-triazol-3-one Trifluoroacetate], the IC50 in assay [1] (1 mM putrescine substrate) is greater than 100000 nM; in assay [2] (0.5 mM tyramine substrate), greater than 100000 nM; in assay [3] (1 mM benzylamine substrate), 740 nM; at recombinant human VAP-1 (setting [4]), 1.9 nM.

`CN1CC=C(c2ccc(Cn3cnn(CC(CN)=C(F)F)c3=O)s2)CC1` [Example 124, 2-[2-(aminomethyl)-3,3-difluoro-allyl]-4-[[5-(1-methyl-3,6-dihydro-2H-pyridin-4-yl)-2-thienyl]methyl]-1,2,4-triazol-3-one Trifluoroacetate]: the IC50 in assay [1] (1 mM putrescine) was greater than 100000 nM; in assay [2] (0.5 mM tyramine), greater than 100000 nM; in assay [3] (1 mM benzylamine) it was greater than 100000 nM; at recombinant human VAP-1 (setting [5]), 11 nM.

`NCC(Cn1ncn(Cc2sc(-c3ccc4c(c3)OCO4)cc2F)c1=O)=C(F)F` [Example 300, 2-[2-(aminomethyl)-3,3-difluoro-allyl]-4-[[5-(1,3-benzodioxol-5-yl)-3-fluoro-2-thienyl]methyl]-1,2,4-triazol-3-one Trifluoroacetate]: the half-inhibitory concentration (IC50) in assay [1] (1 mM putrescine substrate) was 25300 nM; in assay [2] (0.5 mM tyramine substrate), greater than 100000 nM; in assay [3] (1 mM benzylamine substrate) it was 11100 nM; on recombinant human VAP-1 (setting [4]) it was 1.7 nM.

Regarding `Cc1cc(-c2cc(F)c(Cn3cnn(CC(CN)=C(F)F)c3=O)s2)cc2c1NC(=O)CC2` [Example 304, 6-(5-((1-(2-(aminomethyl)-3,3-difluoroallyl)-5-oxo-1,5-dihydro-4H-1,2,4-triazol-4-yl)methyl)-4-fluorothiophen-2-yl)-8-methyl-3,4-dihydroquinolin-2(1H)-one Trifluoroacetate], the IC50 was 12600 nM in assay [1] (1 mM putrescine substrate), greater than 100000 nM in assay [2] (0.5 mM tyramine substrate), greater than 100000 nM in assay [3] (1 mM benzylamine substrate) and 0.7 nM at recombinant human VAP-1 (setting [4]).

Take `NCC(Cn1ncn(-c2ccnc(Br)c2)c1=O)=C(F)F` [Example 10, 2-[2-(aminomethyl)-3,3-difluoro-allyl]-4-(2-bromo-4-pyridyl)-1,2,4-triazol-3-one Trifluoroacetate]: the IC50 in assay [1] (1 mM putrescine) is 1200 nM; in assay [2] (0.5 mM tyramine) it was greater than 100000 nM; in assay [3] (1 mM benzylamine), greater than 100000 nM; on recombinant human VAP-1 (setting [5]) it was 7.7 nM.

`CN(C)c1ccc(-c2cccc(Cn3cnn(CC(CN)=C(F)F)c3=O)c2)cn1` [Example 273, 2-[2-(aminomethyl)-3,3-difluoro-allyl]-4-[[3-[6-(dimethylamino)-3-pyridyl]phenyl]methyl]-1,2,4-triazol-3-one Trifluoroacetate]: the IC50 in assay [1] (1 mM putrescine substrate) is 39300 nM; in assay [2] (0.5 mM tyramine substrate), greater than 100000 nM; in assay [3] (1 mM benzylamine substrate), 2900 nM; on recombinant human VAP-1 (setting [4]), 1.8 nM.
